Reference: patent US7585885B2, “Pyrrolidine derivatives useful as BACE inhibitors” (Eli Lilly and Company, priority 2004, dated 2009)
Where a name gives a salt, the structure may show the parent alone.

Experiments:
human BACE1 (1-460):Fc = target: T1, human BACE1 (1-460):Fc (Homo sapiens, UniProt P56817); assay: BACE1 mcaFRET Assay; type: biochemical; settings: FRET substrate 15 micromolar, pH 4.6, room temperature 16 to 24 hours
T1 construct: made in house; host or cells: HEK293 (transient transfection, purified from conditioned media on Protein A-agarose)
Procedure: (§1) For in vitro enzymatic and cellular assays, test compounds are prepared in DMSO to make up a 10 millimolar stock solution. The stock solution is serially diluted (in a 1:3, 1:2.5, 1:2, or 1:1 dilution series) in DMSO to obtain a final compound concentration of 10 millimolar to 1 micromolar at the first highest concentration of a ten-point dilution curve in a 96-well round-bottom plate right before conducting the in vitro enzymatic and whole assays.
Serial dilutions of test compounds are prepared as described above. Two microliter of each dilution is added to each well on row A to H of a corresponding low protein binding black plate to which 50 microliter of 50 millimolar ammonium acetate, pH 4.6, 1 mM Triton X-100, 1 mg/ml Bovine Serum Albumin, and 15 micromolar of FRET substrate (sequence: (MCA)-S-E-V-N-L-D-A-E-F-R-K(Dnp)-R-R-R-R-NH2) for BACE1 activity are pre-added. The content is mixed well on a plate shaker for 10 min. Fifty microliter of two hundred picomolar human BACE1 (1-460):Fc (See: Vasser, et al., Science, 286, 735-741 (1999)) in the same reaction buffer described above is added to the plate containing substrate and test compounds to initiate the reaction. The relative fluorescence unit (RFU) of the mixture at time 0 is recorded at excitation wavelength 330 nm and emission wavelength 400 nm, after brief mixing on a plate shaker. The reaction plate is covered with aluminum foil and kept in a dark humidified oven at room temperature for 16 to 24 hours. The RFU at the end of incubation is recorded with the same excitation and emission setting. The difference of the RFU at time 0 and the end of incubation represents the activity of BACE1 under the compound treatment. The 10-point inhibition curve was plotted and fitted with the four-parameter logistic equation to obtain the EC50 and IC50 values. (See: Sinha, et al., Nature, 402, 537-540 (2000)). […] Data for selected compounds of the invention tested in this assay are contained in the following table.
Both human (accession number: AF190725) and murine (accession number: NM_011792) BACE1 were cloned from total brain cDNA by […]. The nucleotide sequences corresponding to amino acid sequences #1 to 460 were inserted into the cDNA encoding human IgG1 (Fc) polypeptide (Vassar et al. 1999). This fusion protein of BACE1 (1-460) and human Fc, named huBACE1:Fc, was constructed into the pJB02 vector. Human BACE1(1-460):Fc (huBACE1:Fc) and murine BACE1(1-460):Fc (muBACE1:Fc) were transiently expressed in HEK293 cells. 250 μg cDNA of each construct was mixed with Fugene 6 and added to 1 liter HEK293 cells. Four days after the transfection, conditioned media were harvested for purification.
Conditioned media of HEK293 cell transiently transfected with huBACE1:Fc or muBACE1:Fc cDNA were collected. Cell debris was removed by filtering the conditioned media through 0.22 μm sterile filter. 5 ml Protein A-agarose (bed volume) was added to 4 liter conditioned media. This mixture was gently stirred overnight at 4° C. The Protein A-agarose resin was collected and packed into a low-pressure chromatography column. The column washed with 20× bed volumes of PBS at flow rate 20 ml per hour. Bound huBACE1:Fc or muBACE1:Fc protein was eluted with 50 mM acetic acid, pH 3.6, at flow rate 20 ml per hour. 1 ml fractions of eluate were neutralized immediately with 0.5 ml 200 mM ammonium acetate, pH 6.5. The purity of final product was assessed by electrophoresis in 4-20% Tris-Glycine SDS-PAGE. The enzyme was stored at −80 C in small aliquots.

beta-secretase activity = target: T2, beta-secretase activity (Homo sapiens, UniProt P56817); assay: Whole cell assay for measuring the inhibition of beta-secretase activity; type: cell-based; settings: HEK293/APP751sw or HEK293/APP751wt cells, 37 C for 4 to 6 hours, sandwich ELISA of conditioned media; read-out: IC50 (Abeta, sAPPbeta-lowering effect)
T2 construct: endogenous in cells; host or cells: HEK293p (ATCC CRL-1573) stably expressing human APP751sw or APP751wt
Procedure: as §1
The routine whole cell assay for the measurement of inhibition of beta-secretase activity utilizes the human embryonic kidney cell line HEK293p (ATCC Accession No. CRL-1573) stably expressing a human APP751 cDNA containing the naturally occurring double mutation […] to Asn651Leu652, commonly called the Swedish mutation (noted HEK293/APP751sw) and shown to overproduce Abeta (Citron et al., 1992, Nature 360:672-674). Human embryonic kidney HEK293p cells stably expressing wild-type human APP751 cDNA (noted HEK293/APP751 wt) are also used to assess the inhibition of beta-secretase activity. In vitro Aβ reduction assays have been described in the literature (See: Dovey, et al., Journal of Neurochemistry, 76, 173-181 (2001); Seubert, et al., Nature, 361, 260 (1993); and Johnson-Wood, et al., Proc. Natl. Acad. Sci. USA, 94, 1550-1555 (1997))
Cells (HEK293/APP751sw or HEK293/APP751wt, at 3×10^4 cells/well, containing 200 microliters culture media, DMEM containing 10% FBS) are incubated at 37 C for 4 to 6 hours in the presence/absence of inhibitors (diluted in DMSO) at the desired concentration. At the end of the incubation, conditioned media are analyzed for beta-secretase activity, for example, by analysis of cleavage fragments, Abeta peptide and sAPPbeta. Abeta peptides are measured by a sandwich ELISA, using monoclonal 266 as a capture antibody and biotinylated 3D6 as reporting antibody. The sAPPbeta fragments are analyzed by a sandwich ELISA, using monoclonal 8E5 antibody as a capture antibody and rabbit polyclonal 192sw or 192wt as a reporting antibody. Note that sAPPbeta is the cleavage product of full length APP by BACE1. The concentration of sAPPbeta released in the conditioned media following the compound treatment corresponds to the activity of BACE1 under such conditions. The 10-point inhibition curve was plotted and fitted with the four-parameter logistic equation to obtain the EC50 and IC50 values for the Abeta, sAPPbeta-lowering effect. Data for selected compounds of the invention tested in this assay are contained in the following table.

T1 sequence (P56817 22-460): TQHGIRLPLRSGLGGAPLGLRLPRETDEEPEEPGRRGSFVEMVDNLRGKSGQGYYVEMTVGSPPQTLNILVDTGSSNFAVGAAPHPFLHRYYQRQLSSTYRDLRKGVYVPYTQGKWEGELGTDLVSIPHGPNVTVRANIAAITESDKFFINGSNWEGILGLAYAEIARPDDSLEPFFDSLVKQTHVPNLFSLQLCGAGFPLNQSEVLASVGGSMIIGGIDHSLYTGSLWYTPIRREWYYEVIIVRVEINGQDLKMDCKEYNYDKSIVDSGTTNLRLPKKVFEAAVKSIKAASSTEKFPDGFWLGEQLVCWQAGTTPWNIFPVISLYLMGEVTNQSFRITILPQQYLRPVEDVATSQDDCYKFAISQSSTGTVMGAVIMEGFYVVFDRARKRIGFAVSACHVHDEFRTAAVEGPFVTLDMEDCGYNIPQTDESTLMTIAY
T2 sequence (P56817 46-501): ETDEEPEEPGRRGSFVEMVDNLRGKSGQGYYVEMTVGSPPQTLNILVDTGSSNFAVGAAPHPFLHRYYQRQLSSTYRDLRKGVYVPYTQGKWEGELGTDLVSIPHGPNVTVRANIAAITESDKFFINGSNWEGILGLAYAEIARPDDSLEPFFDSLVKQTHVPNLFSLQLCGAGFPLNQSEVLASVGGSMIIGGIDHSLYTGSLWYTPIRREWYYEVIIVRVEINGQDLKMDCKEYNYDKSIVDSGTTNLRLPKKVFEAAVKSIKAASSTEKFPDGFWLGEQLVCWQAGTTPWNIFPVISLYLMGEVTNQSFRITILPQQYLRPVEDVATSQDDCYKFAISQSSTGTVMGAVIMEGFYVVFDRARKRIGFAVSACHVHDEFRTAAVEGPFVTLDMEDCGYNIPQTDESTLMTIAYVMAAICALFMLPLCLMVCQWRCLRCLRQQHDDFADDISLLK

| IC50 (human BACE1 (1-460):Fc) | IC50 (beta-secretase activity) | SMILES |
| --- | --- | --- |
| 1400 nM |  | CC(=O)N[C@@H](Cc1cc(F)cc(F)c1)[C@H](O)[C@H]1C[C@@H](CC(=O)N2CCOCC2)CN1 [Example 35, N-{(1S,2R)-1-(3,5-Difluoro-benzyl)-2-hydroxy-2-[(2R,4S)-4-(2-morpholin-4-yl-2-oxo-ethyl)-pyrrolidin-2-yl]-ethyl}-acetamide hydrochloride] |
| 5200 nM |  | CC(=O)N[C@@H](Cc1cc(F)cc(F)c1)[C@H](O)[C@H]1C[C@@H](CC(=O)N(C)C)CN1 [Example 37, 2-{(3S,5R)-5-[(1R,2S)-2-Acetylamino-3-(3,5-difluoro-phenyl)-1-hydroxy-propyl]-pyrrolidin-3-yl}-N,N-dimethyl-acetamide hydrochloride] |
| 380 nM | 6070 nM | CC(=O)N[C@@H](Cc1cc(F)cc(F)c1)[C@H](O)[C@H]1C[C@@H](CC(=O)N2CCCCCC2)CN1 [Example 41, N-[(1S,2R)-2-[(2R,4S)-4-(2-Azepan-1-yl-2-oxo-ethyl)-pyrrolidin-2-yl]-1-(3,5-difluoro-benzyl)-2-hydroxy-ethyl]-acetamide hydrochloride] |
| 2300 nM |  | CC(=O)N[C@@H](Cc1cc(F)cc(F)c1)[C@H](O)[C@H]1C[C@@H](OCCC2CCCCC2)CN1 [Example 60, N-[(1S,2R)-2-[(2R,4R)-4-(2-Cyclohexyl-ethoxy)-pyrrolidin-2-yl]-1-(3,5-difluoro-benzyl)-2-hydroxy-ethyl]-acetamide hydrochloride] |

The next lines start with the compound.

| SMILES | IC50 (human BACE1 (1-460):Fc) | IC50 (beta-secretase activity) |
| --- | --- | --- |
| CCC(C)Nc1cc(C(=O)NC(Cc2ccccc2)C(O)C2CC(F)CN2)cc(N(C)S(C)(=O)=O)n1 [Example 7, N-[1-(S)-Benzyl-2-(R)-(4-(S)-fluoropyrrolidin-2-yl)-2-(R)-hydroxyethyl]-2-(S)-sec-butylamino-6-(methanesulfonyl-methylamino)-isonicotinamide bishydrochloride] | 3.9 nM | 13 nM |
| CCC(C)Nc1cc(C(=O)NC(Cc2ccccc2)C(O)C2CCCN2)cc(N(C)S(C)(=O)=O)n1 [Example 12, N-((1S,2R)-1-Benzyl-2-hydroxy-2-(R)-pyrrolidin-2-ylethyl)-2-(S)-sec-butylamino-6-(methanesulfonyl-methylamino)-isonicotinamide hydrochloride] | 1.8 nM | 15 nM |
| CC(=O)N[C@@H](Cc1cc(F)cc(F)c1)[C@H](O)[C@H]1C[C@@H](CC(=O)N2CCCCC2)CN1 [Example 33, N-{(1S,2R)-1-(3,5-Difluoro-benzyl)-2-hydroxy-2-[(2R,4S)-4-(2-oxo-2-piperidin-1-yl-ethyl)-pyrrolidin-2-yl]-ethyl}-acetamide hydrochloride] | 820 nM | 14300 nM |
